In DBAASP:
Values after ≈ are worked out from the molar mass of the structure shown. Values joined by “and” are separate entries in the source; they are usually repeats but may differ in a detail not shown here. Equal entries are not always repeated. Each block holds one compound with its values, some of them ahead of it.

Legend:
Assay in all cases: ≥ marks a high value that may be exact or a test limit, other limits are often not marked, values filed in µg/mL are converted to µM
[1] = system: Staphylococcus aureus ATCC 700699
[2] = system: Klebsiella pneumoniae ATCC 700603
[3] = system: Escherichia coli ATCC 25922
[4] = system: Pseudomonas aeruginosa ATCC 27853
[5] = system: Staphylococcus aureus ATCC 29213
[6] = system: Staphylococcus aureus ATCC 33591
[7] = system: Enterococcus faecalis 981
[8] = system: Nocardia asteroides 201118
[9] = system: Candida glabrata 090902
[10] = system: Staphylococcus aureus ATCC 25923
[11] = system: Staphylococcus aureus ATCC 9144
[12] = system: Escherichia coli ATCC 10536
[13] = system: Bacillus subtilis ATCC 6633
[14] = system: Escherichia coli DH5alpha
[15] = system: Candida krusei ATCC 6258
[16] = system: Candida albicans SC5314
[17] = system: Candida parapsilosis ATCC 22019
[18] = system: Candida albicans ATCC 90028

MIC [11]: 2.7 µM (≈ 8.3 µg/mL)
MIC [12]: 2.9 µM and 7.3 µM
MIC [14]: 2.9 µM (≈ 8.91 µg/mL)
Compound: CC[C@H](C)[C@H](NC(=O)[C@@H](NC(=O)[C@@H]1CCCN1C(=O)[C@H](CO)NC(=O)[C@H](CC(C)C)NC(=O)[C@H](CCCCN)NC(=O)[C@H](CCCCN)NC(=O)[C@H](Cc1ccccc1)NC(=O)[C@H](CC(C)C)NC(=O)[C@H](CCCCN)NC(=O)[C@H](CCCCN)NC(=O)[C@H](C)NC(=O)[C@H](CCCCN)NC(=O)[C@H](CCCCN)NC(=O)[C@H](CCCN=C(N)N)NC(=O)[C@H](Cc1ccccc1)NC(=O)[C@H](CCCN=C(N)N)NC(=O)[C@H](CCCCN)NC(=O)[C@H](C)NC(=O)[C@H](CCCN=C(N)N)NC(=O)CN)C(C)C)C(=O)N1CCC[C@H]1C(=O)N[C@@H](CC(C)C)C(=O)N[C@@H](CC(C)C)C(=O)N[C@@H](Cc1cnc[nH]1)C(=O)N[C@@H](CC(C)C)C(N)=O [GRAKRFRKKAKKLFKKLSPVIPLLHL]

MIC [11]: 2.8 µM (≈ 8.82 µg/mL)
MIC [12]: 3.2 µM and 7.4 µM
MIC [14]: 2.9 µM (≈ 9.13 µg/mL)
Compound: CC[C@H](C)[C@H](NC(=O)[C@@H](NC(=O)[C@@H]1CCCN1C(=O)[C@H](CO)NC(=O)[C@H](CC(C)C)NC(=O)[C@H](CCCCN)NC(=O)[C@H](CCCCN)NC(=O)[C@H](Cc1ccccc1)NC(=O)[C@H](CC(C)C)NC(=O)[C@H](CCCCN)NC(=O)[C@H](CCCCN)NC(=O)[C@H](C)NC(=O)[C@H](CCCCN)NC(=O)[C@H](CCCCN)NC(=O)[C@H](CCCN=C(N)N)NC(=O)[C@H](Cc1ccccc1)NC(=O)[C@H](CCCN=C(N)N)NC(=O)[C@H](CCCCN)NC(=O)[C@H](Cc1ccccc1)NC(=O)[C@H](CCCN=C(N)N)NC(=O)CN)C(C)C)C(=O)N1CCC[C@H]1C(=O)N[C@@H](CC(C)C)C(=O)N[C@@H](CC(C)C)C(=O)N[C@@H](Cc1cnc[nH]1)C(=O)N[C@@H](CC(C)C)C(N)=O [GRFKRFRKKAKKLFKKLSPVIPLLHL]

MIC [15]: 17.1 µM (≈ 32 µg/mL)
MIC [16]: 17.1 µM (≈ 32 µg/mL)
MIC [17]: 8.56 µM (≈ 16 µg/mL)
MIC [18]: ≥ 34.2 µM
Compound: CC[C@H](C)[C@H](NC(=O)[C@@H](NC(=O)CN)C(C)C)C(=O)N[C@@H](CCCCN)C(=O)N[C@@H](C)C(=O)N[C@@H](C)C(=O)N[C@@H](CCCCN)C(=O)N[C@@H](CCCCN)C(=O)N[C@H](C(=O)N[C@H](C(=O)N[C@@H](CCCCN)C(=O)N[C@H](C(=O)N[C@@H](CC(C)C)C(=O)N[C@@H](CCCCN)C(=O)N[C@@H](CCCCN)C(=O)N[C@@H](CC(C)C)C(=O)N[C@@H](Cc1ccccc1)C(N)=O)C(C)C)C(C)C)C(C)C [GVIKAAKKVVKVLKKLF]

Second part, the compound before the results:

Compound: CC[C@H](C)[C@H](NC(=O)[C@H](CC(=O)O)NC(=O)[C@H](CCCCN)NC(=O)[C@H](C)NC(=O)[C@H](C)NC(=O)CNC(=O)[C@H](CCCCN)NC(=O)[C@H](CC(C)C)NC(=O)[C@@H](NC(=O)[C@H](CC(=O)O)NC(=O)[C@@H](NC(=O)[C@@H](NC(=O)[C@H](C)N)C(C)C)C(C)C)[C@@H](C)CC)C(=O)N[C@@H](C)C(=O)NCC(=O)N[C@@H](Cc1cnc[nH]1)C(=O)N[C@@H](CC(C)C)C(=O)N[C@@H](C)C(=O)N[C@@H](CO)C(=O)N[C@@H](CCCCN)C(=O)N[C@H](C(=O)N[C@@H](CCSC)C(=O)N[C@@H](CC(N)=O)C(=O)N[C@@H](CCCCN)C(=O)N[C@@H](CC(C)C)C(N)=O)C(C)C [AVVDILKGAAKDIAGHLASKVMNKL]
MIC [1]: ≥ 100 µM
MIC [2]: > 100 µM
MIC [3]: > 100 µM
MIC [4]: > 100 µM
MIC [5]: > 100 µM
MIC [6]: ≥ 100 µM

Compound: CC(C)C[C@H](NC(=O)[C@H](CC(C)C)NC(=O)CNC(=O)[C@H](CO)NC(=O)[C@H](CC(C)C)NC(=O)[C@H](CC(C)C)NC(=O)[C@H](CCCCN)NC(=O)CNC(=O)[C@@H](NC(=O)[C@H](Cc1ccccc1)NC(=O)[C@@H]1CCCN1C(=O)[C@H](CC(C)C)NC(=O)[C@@H](N)Cc1ccccc1)C(C)C)C(N)=O [FLPFVGKLLSGLL]
MIC [7]: 25 µM (≈ 35.1 µg/mL)
MIC [8]: 12.5 µM (≈ 17.5 µg/mL)
MIC [9]: ≥ 100 µM
MIC [10]: 12.5 µM (≈ 17.5 µg/mL)

Compound: CC[C@H](C)[C@H](NC(=O)[C@H](CCCN=C(N)N)NC(=O)[C@@H](NC(=O)[C@@H](NC(=O)[C@@H]1CCCN1C(=O)[C@@H](NC(=O)[C@@H](NC(=O)[C@@H](NC(=O)[C@@H]1CCCN1C(=O)CNC(=O)[C@H](Cc1ccc(O)cc1)NC(=O)[C@H](CCCCN)NC(=O)[C@H](CCCCN)NC(=O)[C@H](Cc1c[nH]c2ccccc12)NC(=O)[C@H](C)NC(=O)[C@H](CCCN=C(N)N)NC(=O)[C@H](CC(C)C)NC(=O)[C@H](C)NC(=O)[C@H](CCCCN)NC(=O)[C@H](CCCN=C(N)N)NC(=O)CNC(=O)[C@H](CC(C)C)NC(=O)[C@H](CO)NC(=O)[C@H](CCCN=C(N)N)NC(=O)[C@H](CC(C)C)NC(=O)CNC(=O)CN)[C@@H](C)CC)[C@@H](C)CC)C(C)C)[C@@H](C)CC)[C@@H](C)CC)C(N)=O [GGLRSLGRKALRAWKKYGPIIVPIIRI]
MIC [11]: 3.2 µM (≈ 9.7 µg/mL)
MIC [12]: 2.3 µM (≈ 6.97 µg/mL)
MIC [13]: 1.5 µM (≈ 4.55 µg/mL)
MIC [14]: 2.6 µM (≈ 7.88 µg/mL)
